Data set [1] addresses T1, human aryl hydrocarbon receptor (AhR) (Homo sapiens, UniProt P35869).
T1 construct: host or cells: Saccharomyces cerevisiae strain YCM3 (derived from W303a), AhR and ARNT integrated on chromosome III under a galactose promoter
Put plainly: Yeast bioassay of human AhR activation (YCM3 yeast, LacZ reporter). Format: cell-based. The settings on record: for EC50: concentration inducing 50% of the activity of 100 μM phenanthrene, 18 hr, read-out: rEC50. The text has this:
Cell culture. An engineered Saccharomyces cerevisiae yeast strain, YCM3, was used for the present study. YCM3 was derived from the W303a yeast strain and is made available to investigators through the American Type Culture Collection (ATCC, strain MYA-3637). Human Ah receptor and ARNT genes were inserted onto chromosome III under the control of galactose promoter. YCM3 was transformed with a LacZ reporter plasmid that is expressed upon interaction with ligand activated AHRC (FIG. 24). This modification process was described in a previous study (Fox et al., 2008). The yeast cells were maintained in a glucose-containing medium (0.67% yeast nitrogen base without amino acids, 2% glucose, supplemented with 0.01% uracil, adenine, leucine, and histidine), and the bioassay was performed in a galactose-containing medium (2% galactose substituted for glucose in the medium described herein). Medium components were purchased from Sigma Aldrich Chemical Company.
(§1) Yeast bioassay. The YCM3 yeast cells were diluted into the galactose medium to a final A600 nm of 0.04, plated into 96-well plates at 200 μl/well, and treated with various concentrations of PAHs for 18 hr at 30° C. During this time, the human AhR and aryl hydrocarbon receptor nuclear translocator (ARNT) were expressed in the presence of galactose and activated by PAH ligands in the cell to form the aryl hydrocarbon receptor complex (AHRC). After 18 hrs of incubation, yeast cells were suspended by pipetting, a 25 μl aliquot from each well was transferred into another 96-well assay plate and mixed with 225 μl substrate solution (60 mM Na2HPO4, 40 mM NaH2PO4, 1 mM MgCl2, 10 mM KCl, 0.2% sarkosyl, 1 mM dithiothreitol, and 0.4 mg/ml ortho-nitrophenyl-β-galactoside; pH, 7.0). The assay plate was incubated for ˜5 min at 37° C. and then 100 μl of a 1M Na2CO3 solution was added to stop the reaction and enhance the yellow color. Cell densities were determined from the first 96-well plate by measuring A600 nm and the color intensities of LacZ reactions determined by A405 nm from the corresponding wells of the second plate.
A450 sample is the measurement of a ligand-treated well at 405 nm absorbance and A450 empty is the measurement of a well that contains only medium and no cells. A600 sample is the measurement of yeast cell density of a ligand-treated well at 600 nm absorbance and A600 empty is the measurement of a well that contains only medium and no cells. Cell volume is the amount of cell suspension added per well in ml (for example 0.025 ml) and reaction time is the time period of the colorimetric reaction (for example 5 min). The lacZ units were calculated as a percentage relative to the positive control (β-naphthaflavone signal set as 100%), and the dose response curves were fitted using SlideWrite program (version 7.01, Advanced Graphics Software, Inc.) using the 2 parameter curve: y=m+a0*x/(a1+x) (2) where m=LacZDMSO value from the assay plate, a0=maximum effect and a1=half maximum effective concentrations (EC50).
Relative EC50 and EC25 (rEC50 and rEC25) values were further introduced to compare potencies of various methylated phenanthrenes. rEC50 and rEC25 were defined as the concentrations of the total PAH at which the AhR was activated to 50% or 25% of the activation observed in the 100 μM phenanthrene control, respectively. The 100 μM concentration was chosen because it was the maximum that can be achieved in the assay. The rEC50 and rEC25 and the errors associated with these values were calculated from the fitted curves. Specifically, the LacZ value corresponding to 50% or 25% of this value was calculated according to the following equations: y(EC50)=[lacZ(100 uM Phen)+LacZ(1% DMSO)]/2 (3) y(EC25)=[lacZ(100 uM Phen)+3*LacZ(1% DMSO)]/4 (4)
These calculated y values and the a0 and a1 values from the curve fits were then used to solve for x in equation (2) above. These x values represent the mean of rEC50 or rEC25 from the fitted curve. […]

The test system of data set [2] is YCM3 yeast cells. In words: Toxicity to yeast cells in the yeast bioassay (inhibition of cell accumulation). The settings on record: up to 100 μM. It is filed as cell-based, Saccharomyces cerevisiae. On the procedure: as §1, with “The assay plate was incubated for ˜5 min at 37° C. and then 100 μl of a 1M Na2CO3 solution was added to stop the reaction and enhance the yellow color.” left out
During the induction process, YCM3 yeast cells were incubated with varying concentrations of phenanthrene and its methylated derivatives and their signaling activities were measured via a colorimetric substrate. […] Differences in cell growth at the end of the 18 hr incubation period were normalized by measuring each culture's absorbance at 600 nm.

For data set [3] the following is noted: crystal; cited from earlier work.
Data set [4] relates to marine fish. The settings on record: larvae of marine fish; cited from earlier work.

Here are results for seven compounds from patent US11029303B2, “PAH antibodies and uses thereof” (The Administrators of the Tulane Educational Fund, priority 2015, dated 2021).

T1 sequence (P35869 11-848): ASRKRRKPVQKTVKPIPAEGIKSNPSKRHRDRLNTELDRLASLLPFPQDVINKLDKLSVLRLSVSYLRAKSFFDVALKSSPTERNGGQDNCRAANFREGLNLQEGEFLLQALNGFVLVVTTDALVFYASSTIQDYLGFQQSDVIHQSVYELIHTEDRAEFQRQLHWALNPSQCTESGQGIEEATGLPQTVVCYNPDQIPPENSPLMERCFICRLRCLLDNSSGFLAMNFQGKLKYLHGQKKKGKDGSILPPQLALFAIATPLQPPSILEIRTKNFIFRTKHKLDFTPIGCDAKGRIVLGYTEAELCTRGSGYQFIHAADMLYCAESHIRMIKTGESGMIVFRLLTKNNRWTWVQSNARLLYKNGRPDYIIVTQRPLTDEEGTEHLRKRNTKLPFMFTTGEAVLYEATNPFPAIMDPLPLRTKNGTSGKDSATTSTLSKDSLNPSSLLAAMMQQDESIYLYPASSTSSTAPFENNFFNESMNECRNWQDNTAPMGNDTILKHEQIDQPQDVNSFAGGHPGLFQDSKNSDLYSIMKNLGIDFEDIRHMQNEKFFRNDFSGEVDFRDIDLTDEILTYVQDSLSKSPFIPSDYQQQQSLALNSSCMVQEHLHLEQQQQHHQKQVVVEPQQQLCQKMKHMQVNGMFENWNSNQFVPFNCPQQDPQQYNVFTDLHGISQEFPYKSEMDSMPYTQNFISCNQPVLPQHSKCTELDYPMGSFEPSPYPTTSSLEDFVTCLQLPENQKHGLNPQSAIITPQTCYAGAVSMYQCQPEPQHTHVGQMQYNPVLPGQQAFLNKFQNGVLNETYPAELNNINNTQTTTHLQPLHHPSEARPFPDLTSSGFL
T1 sequence (P27540 whole entry partner): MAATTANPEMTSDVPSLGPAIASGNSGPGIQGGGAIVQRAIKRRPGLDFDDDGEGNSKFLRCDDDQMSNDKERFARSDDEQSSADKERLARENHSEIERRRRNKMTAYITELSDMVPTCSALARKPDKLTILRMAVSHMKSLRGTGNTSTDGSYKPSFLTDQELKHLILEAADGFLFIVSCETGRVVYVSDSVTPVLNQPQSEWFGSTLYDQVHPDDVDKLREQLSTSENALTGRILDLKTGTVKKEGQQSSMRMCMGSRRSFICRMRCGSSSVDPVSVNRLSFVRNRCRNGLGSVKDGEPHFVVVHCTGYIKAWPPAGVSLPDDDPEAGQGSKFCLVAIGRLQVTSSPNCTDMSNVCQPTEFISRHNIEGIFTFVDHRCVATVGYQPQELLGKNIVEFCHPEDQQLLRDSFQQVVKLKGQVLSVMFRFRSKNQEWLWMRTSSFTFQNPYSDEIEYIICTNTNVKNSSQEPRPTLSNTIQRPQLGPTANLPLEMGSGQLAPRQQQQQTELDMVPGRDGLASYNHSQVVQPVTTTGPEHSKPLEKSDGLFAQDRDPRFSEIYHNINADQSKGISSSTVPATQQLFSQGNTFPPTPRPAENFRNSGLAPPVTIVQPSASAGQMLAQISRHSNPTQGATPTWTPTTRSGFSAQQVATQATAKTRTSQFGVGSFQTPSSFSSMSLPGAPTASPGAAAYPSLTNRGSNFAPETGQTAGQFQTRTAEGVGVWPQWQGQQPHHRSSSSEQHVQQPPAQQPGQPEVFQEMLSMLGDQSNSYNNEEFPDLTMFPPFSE

Consider `Cc1ccc2ccc3ccc(C)cc3c2c1` [3,6-DMP, 3,6-dimethylphenanthrene], for which the “rEC50 comparison (ANOVA post-test)” value in data set [1] is listed as “significantly more potent that 4-MP”. In data set [1] (25% of the activity of 100 μM phenanthrene), the “rEC25 comparison (ANOVA post-test)” value is “significantly more potent than the 3-, 4- and 9-MPs”. Besides, the “response achieved in the assay” value in data set [1] (dose-response curve up to 100 μM) is given as “up to 50%”.

On to `Cc1cccc2c1ccc1ccccc12` [Clone 1-MP, 1-methylphenanthrene], for which, in data set [1], the “concentration at which maximal response was reached” value is ~40 µM and the EC50 came out at 4 µM. The Emax at 18 h in data set [1] (human, 1 μM BNF set as 100%, read-out: maximal response) was 109%.

Take `Cc1ccc2c(ccc3ccccc32)c1` [Clone 2-MP, 2-methylphenanthrene]: the EC50 in data set [1] was 4.6 µM.

As to `Cc1ccc2ccc3ccccc3c2c1` [Clone 3-MP, 3-methylphenanthrene], the EC50 in data set [1] turned out to be 5.8 µM.

For the compound `Cc1cc2ccccc2c2ccccc12` [Clone 9-MP, 9-methylphenanthrene], in data set [2], the “toxicity to the yeast cells” value was “less toxic to the yeast cells”.

As for `c1ccc2c(c1)ccc1ccccc12` [phenanthrene], the “toxicity to the yeast cells” value in data set [2] is given as “less toxic to the yeast cells”. Besides, in data set [3], the “solubility lower than biphenyl” value is recorded as 1000 fold.

As to `Cc1cccc2c1ccc1cc(C(C)C)ccc12` [retene, 7-isopropyl-1-methylphenanthrene], the toxicity in vivo entry in data set [4] is listed as “greater toxicity than unsubstituted phenanthrene”.
